Laboratory results reported in patent publication US9663528B2, “Substituted 1,2,3,4,6,8,12,12a-octahydro-1,4-methanodipyrido[1,2-a:1',2'-d]pyrazines and methods for treating viral infections” (priority 2012, dated 2017).
pIC50: −log10 of the molar value. Like-named read-outs stand apart in the source and are kept apart here.

How the values were obtained:
PXR = PXR (Homo sapiens (Human), UniProt O75469); assay: Human PXR activation assay (luciferase reporter gene assay, DPX2 cells); assay type: cell-based; conditions: human
Protocol: A stably transformed tumor cell line (DPX2) was plated on 96-well microtiter plates. DPX2 cells harbor the human PXR gene (NR112) and a luciferase reporter gene linked to two promoters identified in the human CYP3A4 gene, namely XREM and PXRE. […] The number of viable cells was determined and the reporter gene activity was assessed. Positive control: […]

OCT2 = OCT2 (Homo sapiens (Human), UniProt O15244); assay: OCT2 inhibition assay (14C-TEA uptake, OCT2-transfected MDCKII cells); assay type: cell-based
Protocol: On assay day, cells were trypsinized and resuspended in Krebs-Henseleit Buffer (KHB), pH 7.4 at […]. Cells were preincubated for 15 min in assay plate before addition of test compound or substrate. Test compounds were serially diluted in DMSO and then spiked (2 μL) into in 0.4 mL KHB buffer containing wild-type or OCT2-transfected cells and incubated for 10 minutes. Assay was initiated with the addition of 0.1 mL of 100 μM ^14C-TEA in KHB buffer (20 μM final concentration after mixing). The concentration of TEA is based on the Km. After 10 minutes of incubation, the assay mixture was quenched with addition of 0.5 mL of ice-cold 1×PBS buffer. Samples were then centrifuged at 1000 rpm for 5 min and supernatants were removed. Wash steps were repeated four times with ice-cold PBS. Finally, the cell pellets were lysed with 0.2N NaOH and let sit at room temperature for at least 30 min to ensure complete lysis. Samples were then counted on liquid scintillation counter and dpm counts were used to perform the following calculations.

[1] = Pharmacokinetic analysis following intravenous administration to beagle dogs; assay type: in vivo; conditions: male, dog, 0.5 mg/kg; for MRT / clearance: beagle, in vivo, iv; for Vd: plasma, beagle dogs, IV infusion over 30 min, read-out: Vss
Protocol: (§1) Pharmacokinetic analysis was performed on various test compounds following intravenous or oral administration to beagle dogs.
(§2) For pharmacokinetic analysis of intravenously administered compounds, the test compounds were formulated in 5% Ethanol, 55% PEG 300, and 40% water at 0.1 mg/mL for IV infusion. For pharmacokinetic analysis of orally administered compounds, the test compounds were formulated as an aqueous suspension in 0.1% Tween 20, 0.5% HPMC LV 100 in Di Water at 1 mg/kg.
(§3) Each dosing group consisted of 3 male, non-naïve purebred beagle dogs. At dosing, the animals weighed between 10 to 13 kg. The animals were fasted overnight prior to dose administration and up to 4 hr after dosing. For studies of intravenous administration, the test article was administered to the animals by intravenous infusion over 30 min. The rate of infusion was adjusted according to the body weight of each animal to deliver a dose of 0.5 mg/kg. For studies of oral administration, the test article was administered according to the body weight of each animal to deliver a dose of 1 mg/kg.
For pharmacokinetic analysis of intravenously administered compounds, serial venous blood samples (approximately 1 mL each) were taken from each animal at 0, 0.250, 0.483, 0.583, 0.750, 1.00, 1.50, 2.00, 4.00, 8.00, 12.0, and 24.0 hours after dosing. The blood samples were collected into Vacutainer™ tubes containing EDTA-K2 as the anti-coagulant and were immediately placed on wet ice pending centrifugation for plasma. An LC/MS/MS method was used to measure the concentration of the test compound in plasma. An aliquot of 100 μL of each plasma sample was added to a clean 96 well plate, and 400 μL of cold acetonitrile/internal standard solution (ACN)/(ISTD) was added. After protein precipitation, an aliquot of 110 μL of the supernatant was transferred to a clean 96-well plate and diluted with 300 μL of water. An aliquot of 25 μL of the above solution was injected into a TSQ Quantum Ultra LC/MS/MS system utilizing a Hypersil Gold C18 HPLC column (50×3.0 mm, 5 μm; Thermo-Hypersil Part #25105-053030). An Agilent 1200 series binary pump (P/N G1312A Bin Pump) was used for elution and separation, and an HTS Pal autosampler (LEAP Technologies, Carrboro, N.C.) was used for sample injection. A TSQ Quantum Ultra triple quadrupole mass spectrometer was utilized in selective reaction monitoring mode (Thermo Finnigan, San Jose, Calif.). Liquid chromatography was performed using two mobile phases: mobile phase A contained 1% acetonitrile in 2.5 mM ammonium formate aqueous solution with pH of 3.0, and mobile phase B contained 90% acetonitrile in 10 mM ammonium formate with pH of 4.6. Non-compartmental pharmacokinetic analysis was performed on the plasma concentration-time data. The resulting data are shown in the first three columns of Table 4. In Table 4, CL refers to clearance, which characterizes the rate at which drug is removed from plasma. The lower the clearance of a drug is, the longer the elimination half-life is in the body. Vss refers to the steady state volume of distribution and indicates how well a drug is distributed into the tissues. The larger the Vss is, the longer the elimination half-life is in the body. MRT refers to mean residence time, which is a measure of the average time molecules exist in the body.

in vitro = conditions: human
[2] = Pharmacokinetic analysis following oral administration to beagle dogs; assay type: in vivo; conditions: male, beagle, dog, in vivo, po, 1 mg/kg
Protocol: as §1, §2, §3
For pharmacokinetic analysis of orally administered compounds, serial venous blood samples (approximately 0.3 mL each) were taken from each animal at time points of 0, 0.25, 0.50, 1.0, 2.0, 4.0, 6.0, 8.0, 12.0 and 24.0 hours after dosing. Blood samples were collected, prepared and analyzed in a similar way to the intravenous studies described above. Non-compartmental pharmacokinetic analysis was performed on the plasma concentration-time data. The resulting data are shown in the last three columns of Table 4. In Table 4, F (%) refers to oral bioavailability. Cmax refers to the peak plasma concentration of the compound after administration. AUC refers to area under the curve and is a measure of total plasma exposure of the indicated compound.

[3] = 15 μM, relative to maximum fold induction by 10 or 20 μM rifampicin, DPX2 cells, 24 hours, read-out: % Emax at 15 μM
[4] = OCT2 mediated uptake of 14C-TEA (20 μM), MDCKII cells, read-out: IC50
[5] = MT-4 cells, mock-infected, CC50 nM in MT-4, MT-4 cells, 5 days incubation

Chain of OCT2 (O15244 whole entry): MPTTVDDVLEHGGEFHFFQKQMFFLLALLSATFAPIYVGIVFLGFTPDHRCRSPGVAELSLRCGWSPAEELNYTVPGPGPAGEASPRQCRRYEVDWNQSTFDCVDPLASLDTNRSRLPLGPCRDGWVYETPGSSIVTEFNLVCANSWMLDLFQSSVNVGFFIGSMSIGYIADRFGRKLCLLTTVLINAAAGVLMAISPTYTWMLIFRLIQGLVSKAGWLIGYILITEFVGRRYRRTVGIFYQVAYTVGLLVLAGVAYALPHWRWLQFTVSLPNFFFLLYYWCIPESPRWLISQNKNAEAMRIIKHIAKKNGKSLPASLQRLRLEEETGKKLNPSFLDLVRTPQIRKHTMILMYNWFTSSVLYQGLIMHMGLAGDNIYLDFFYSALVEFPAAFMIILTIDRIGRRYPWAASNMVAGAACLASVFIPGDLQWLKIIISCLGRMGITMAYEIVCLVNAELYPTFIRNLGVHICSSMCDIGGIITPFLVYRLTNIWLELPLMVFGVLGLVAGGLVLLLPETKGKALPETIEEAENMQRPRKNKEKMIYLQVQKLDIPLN
Chain of PXR (O75469 whole entry): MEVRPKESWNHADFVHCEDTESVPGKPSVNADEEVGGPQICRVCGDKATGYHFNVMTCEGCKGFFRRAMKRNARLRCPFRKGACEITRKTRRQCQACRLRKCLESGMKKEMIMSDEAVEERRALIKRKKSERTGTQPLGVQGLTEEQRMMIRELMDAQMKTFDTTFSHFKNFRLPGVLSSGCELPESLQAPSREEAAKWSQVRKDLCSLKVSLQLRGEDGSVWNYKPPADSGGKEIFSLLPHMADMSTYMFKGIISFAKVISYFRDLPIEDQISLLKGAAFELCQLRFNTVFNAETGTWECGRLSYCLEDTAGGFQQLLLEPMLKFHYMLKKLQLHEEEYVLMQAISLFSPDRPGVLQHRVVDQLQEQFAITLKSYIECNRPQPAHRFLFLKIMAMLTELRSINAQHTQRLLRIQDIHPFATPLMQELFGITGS

SMILES	Emax at 24 h, 15 µM (PXR)	pIC50 (OCT2)	MRT [1]	clearance [1]	Vd [1]	CC50 at 5 days (in vitro; CC50 nM in MT-4)	Emax at 24 h, 15 µM (PXR; [3])	pIC50 (OCT2; [4])	CC50 at 5 days (in vitro; [5])	AUC [2]	Cmax [2]	F (%) aqueous suspension [2]
C[C@@H](NC(=O)c1cn2c(c(O)c1=O)C(=O)N1[C@H]3CC[C@H](C3)[C@@H]1C2)c1c(F)cc(F)cc1F [Compound 77, (1R,4S,12aR)-7-hydroxy-6,8-dioxo-N—((R)-1-(2,4,6-trifluorophenyl)ethyl)-1,2,3,4,6,8,12,12a-octahydro-1,4-methanodipyrido[1,2-a:1′,2′-d]pyrazine-9-carboxamide]	11%	5.42	2.2 h	5 mL/min/kg	0.64 L/kg	10100 nM	–	–	–	–	–	–
O=C(NCc1ccc(F)cc1Cl)c1cn2c(c(O)c1=O)C(=O)N1[C@H]3CC[C@H](C3)O[C@@H]1C2 [Compound 63, (2R,5S,13aR)-N-(2-chloro-4-fluorobenzyl)-8-hydroxy-7,9-dioxo-2,3,4,5,7,9,13,13a-octahydro-2,5-methanopyrido[1′,2′:4,5]pyrazino[2,1-b][,3]oxazepine-10-carboxamide]	–	–	–	–	–	3160 nM	13%	7.38	–	–	–	–
C[C@H]1C[C@@H]2C[C@H]1N1C(=O)c3c(O)c(=O)c(C(=O)NCc4c(F)cc(F)cc4F)cn3C[C@@H]21 [Compound 99, (1R,3S,4R,12aR)-7-hydroxy-3-methyl-6,8-dioxo-N-(2,4,6-trifluorobenzyl)-1,2,3,4,6,8,12,12a-octahydro-1,4-methanodipyrido[1,2-a:1′,2′-d]pyrazine-9-carboxamide]	17%	5.82	–	–	–	8480 nM	–	–	–	–	–	–
O=C(NCc1c(F)cc(F)cc1F)c1cn2c(c(O)c1=O)C(=O)N1[C@@H]3CC[C@@H](C3)O[C@H]1C2 [Compound 45, (13aS)-8-hydroxy-7,9-dioxo-N-(2,4,6-trifluorobenzyl)-2,3,4,5,7,9,13,13a-octahydro-2,5-methanopyrido[1′,2′:4,5]pyrazino[2,1-b][1,3]oxazepine-10-carboxamide]	–	–	–	–	–	–	19%	6.86	15800 nM	–	–	–
O=C(NCc1c(F)cc(F)cc1F)c1cn2c(c(O)c1=O)C(=O)N1[C@H]3C[C@H](C3)[C@H]1C2 (single isomer, unassigned) [Compound 96]	–	–	–	–	–	–	11%	5.87	26600 nM	–	–	–
O=C(NCc1ccc(F)cc1F)c1cn2c(c(O)c1=O)C(=O)N1[C@@H]3CC[C@@H](C3)O[C@H]1C2 [Compound 3, (2S,5R,13aS)-N-(2,4-difluorobenzyl)-8-hydroxy-7,9-dioxo-2,3,4,5,7,9,13,13a-octahydro-2,5-methanopyrido[1′,2′:4,5]pyrazino[2,1-b][1,3]oxazepine-10-carboxamide]	7.5%	–	4.9 h	0.783 mL/min/kg	0.23 L/kg	38400 nM	–	6.60	–	9.2 µM·h	1200 nM	18.7%
O=C(NCc1c(F)cc(F)cc1F)c1cn2c(c(O)c1=O)C(=O)N1[C@H]3CC[C@H](C3)[C@H]1C2 [Compound 55, (1R,4S,12aS)-7-hydroxy-6,8-dioxo-N-(2,4,6-trifluorobenzyl)-1,2,3,4,6,8,12,12a-octahydro-1,4-methanodipyrido[1,2-a:1′,2′-d]pyrazine-9-carboxamide]	24%	6.32	4.2 h	0.967 mL/min/kg	0.24 L/kg	11100 nM	–	–	–	–	–	–
O=C(NCc1c(F)cc(F)cc1F)c1cn2c(c(O)c1=O)C(=O)N1[C@@H](C2)[C@H]2C[C@@H]1C(F)(F)C2 [Compound 98, (1S,4R,12aR)-3,3-difluoro-7-hydroxy-6,8-dioxo-N-(2,4,6-trifluorobenzyl)-1,2,3,4,6,8,12,12a-octahydro-1,4-methanodipyrido[1,2-a:1′,2′-d]pyrazine-9-carboxamide]	0%	–	3.3 h	0.783 mL/min/kg	0.16 L/kg	17900 nM	–	5.43	–	–	–	–
O=C(NCc1cc(F)c(F)cc1F)c1cn2c(c(O)c1=O)C(=O)N1[C@H]3CC[C@H](C3)O[C@@H]1C2 [Compound 64, (2R,5S,13aR)-8-hydroxy-7,9-dioxo-N-(2,4,5-trifluorobenzyl)-2,3,4,5,7,9,13,13a-octahydro-2,5-methanopyrido[1′,2′:4,5]pyrazino[2,1-b][1,3]oxazepine-10-carboxamide]	8%	–	–	–	–	3330 nM	–	7.03	–	–	–	–
O=C(NCc1ccc(F)cc1F)c1cn2c(c(O)c1=O)C(=O)N1C(C2)[C@H]2CC[C@@H]1C2 (stereo in doubt) [Compound 48, (1S,4R,12aS)-N-(2,4-difluorobenzyl)-7-hydroxy-6,8-dioxo-1,2,3,4,6,8,12,12a-octahydro-1,4-methanodipyrido[1,2-a:1′,2′-d]pyrazine-9-carboxamide]	–	5.31	–	–	–	14000 nM	5%	–	–	–	–	–
O=C(NCc1c(F)cc(F)cc1F)c1cn2c(c(O)c1=O)C(=O)N1[C@H](C2)[C@H]2C[C@@H]1C(F)(F)C2 [Compound 83, (1S,4R,12aS)-3,3-difluoro-7-hydroxy-6,8-dioxo-N-(2,4,6-trifluorobenzyl)-1,2,3,4,6,8,12,12a-octahydro-1,4-methanodipyrido[1,2-a:1′,2′-d]pyrazine-9-carboxamide]	1%	–	2.4 h	2.68 mL/min/kg	0.38 L/kg	27500 nM	–	5.00	–	–	–	–
C[C@@H]1CCO[C@H]2Cn3cc(C(=O)NC4(c5ccc(F)cc5F)CC4)c(=O)c(O)c3C(=O)N12 [Compound 5, (4R,12aS)-N-(1-(2,4-difluorophenyl)cyclopropyl)-7-hydroxy-4-methyl-6,8-dioxo-3,4,6,8,12,12a-hexahydro-2H-[1,3]oxazino[3,2-d]pyrido[1,2-a]pyrazine-9-carboxamide]	–	–	–	–	–	–	32%	5.65	10500 nM	–	–	–
